Laboratory results as given in patent US20230133958A1, “COMPOUNDS USEFUL IN MODULATING EGFR AND PI3K” (Mekanistic Therapeutics LLC, priority 2021, published 2023).

Assays:
[1] = target: PI3Kα (Homo sapiens, UniProt P42336); test: Z'-LYTE / Adapta biochemical kinase assay, PI3Kα; conditions: concentration of 100 nM/liter; read-out: Percent Inhibition of target enzymes, PI3K A
Description: (§1) The Z′-LYTE® biochemical assay employs a fluorescence-based, coupled-enzyme format and is based on the differential sensitivity of phosphorylated and non-phosphorylated peptides to proteolytic cleavage. The peptide substrate is labeled with two fluorophores—one at each end—that make up a FRET pair. In the primary reaction, the kinase transfers the gamma-phosphate of ATP to a single tyrosine, serine or threonine residue in a synthetic FRET-peptide. In the secondary reaction, a site-specific protease recognizes and cleaves non-phosphorylated FRET-peptides. Phosphorylation of FRET-peptides suppresses cleavage by the Development Reagent. Cleavage disrupts FRET between the donor (i.e., coumarin) and acceptor (i.e., fluorescein) fluorophores on the FRET-peptide, whereas uncleaved, phosphorylated FRET-peptides maintain FRET. A ratiometric method, which calculates the ratio (the Emission Ratio) of donor emission to acceptor emission after excitation of the donor fluorophore at 400 nm, is used to quantitate reaction progress.
(§2) A significant benefit of this ratiometric method for quantitating reaction progress is the elimination of well-to-well variations in FRET-peptide concentration and signal intensities. As a result, the assay yields very high Z′-factor values (>0.7) at a low percent phosphorylation.
(§3) Both cleaved and uncleaved FRET-peptides contribute to the fluorescence signals and therefore to the Emission Ratio. The extent of phosphorylation of the FRET-peptide can be calculated from the Emission Ratio. The Emission Ratio will remain low if the FRET-peptide is phosphorylated (i.e., no kinase inhibition) and will be high if the FRET-peptide is non-phosphorylated (i.e., kinase inhibition).
(§4) Enzyme: The ADAPTA universal kinase assay is a homogenous, fluorescent based immunoassay for the detection of ADP. In contrast to ATP depletion assays, the ADAPTA assay is extremely sensitive to ADP formation such that a majority of the signal change occurs in the first 10-20% conversion of ATP to ADP. This makes the ADAPTA universal kinase assay ideally suited for use with low activity kinases.
(§5) The principle of the ADAPTA universal kinase assay is outlined below. The assay itself can be divided into two phases: a kinase reaction phase, and an ADP detection phase. In the kinase reaction phase, all components required for the kinase reaction are added to the well, and the reaction is allowed to incubate for 60 minutes. After the reaction, a detection solution consisting of a europium labeled anti-ADP antibody, an Alexa Fluor® 647 labeled ADP tracer, and EDTA (to stop the kinase reaction) is added to the assay well. ADP formed by the kinase reaction (in the absence of an inhibitor) will displace the Alexa Fluor® 647 labeled ADP tracer from the antibody, resulting in a decrease in the TR-FRET signal. In the presence of an inhibitor, the amount of ADP formed by the kinase reaction is reduced, and the resulting intact antibody-tracer interaction results in a high TR-FRET signal.
(§6) Test Compounds: The Test Compounds are screened in 1% DMSO (final) in the well. For 10 point titrations, 3-fold serial dilutions are conducted from the starting concentration of the customer’s choosing.
(§7) Peptide/Kinase Mixtures: All Peptide/Kinase Mixtures are diluted to a 2X working concentration in the appropriate Kinase Buffer.
(§8) ATP Solution: All ATP Solutions are diluted to a 4X working concentration in Kinase Buffer (50 mM HEPES pH 7.5, 0.01% BRIJ-35, 10 mM MgCl2,1 mM EGTA). ATP Km apparent is previously determined using a Z′-LYTE® assay.
(§9) Development Reagent Solution: The Development Reagent is diluted in Development Buffer.
(§10) Assay Protocol: Bar-coded Corning, low volume NBS, black 384-wellplate (Corning Cat. #4514) 1. 2.5 µL - 4X Test Compound or 100 nL 100X plus 2.4 µL kinase buffer. 2. 5 µL - 2X Peptide/Kinase Mixture. 3. 2.5 µL - 4X ATP Solution. 4. 30-second plate shake. 5. 60-minute Kinase Reaction incubation at room temperature. 6. 5 µL - Development Reagent Solution. 7. […]

[2] = target: EGFR (Homo sapiens, UniProt P00533); test: Z'-LYTE / Adapta biochemical kinase assay, EGFR; conditions: concentration of 100 nM/liter; read-out: Percent Inhibition of target enzymes, EGFR
Sequence of EGFR (P00533 25-1210): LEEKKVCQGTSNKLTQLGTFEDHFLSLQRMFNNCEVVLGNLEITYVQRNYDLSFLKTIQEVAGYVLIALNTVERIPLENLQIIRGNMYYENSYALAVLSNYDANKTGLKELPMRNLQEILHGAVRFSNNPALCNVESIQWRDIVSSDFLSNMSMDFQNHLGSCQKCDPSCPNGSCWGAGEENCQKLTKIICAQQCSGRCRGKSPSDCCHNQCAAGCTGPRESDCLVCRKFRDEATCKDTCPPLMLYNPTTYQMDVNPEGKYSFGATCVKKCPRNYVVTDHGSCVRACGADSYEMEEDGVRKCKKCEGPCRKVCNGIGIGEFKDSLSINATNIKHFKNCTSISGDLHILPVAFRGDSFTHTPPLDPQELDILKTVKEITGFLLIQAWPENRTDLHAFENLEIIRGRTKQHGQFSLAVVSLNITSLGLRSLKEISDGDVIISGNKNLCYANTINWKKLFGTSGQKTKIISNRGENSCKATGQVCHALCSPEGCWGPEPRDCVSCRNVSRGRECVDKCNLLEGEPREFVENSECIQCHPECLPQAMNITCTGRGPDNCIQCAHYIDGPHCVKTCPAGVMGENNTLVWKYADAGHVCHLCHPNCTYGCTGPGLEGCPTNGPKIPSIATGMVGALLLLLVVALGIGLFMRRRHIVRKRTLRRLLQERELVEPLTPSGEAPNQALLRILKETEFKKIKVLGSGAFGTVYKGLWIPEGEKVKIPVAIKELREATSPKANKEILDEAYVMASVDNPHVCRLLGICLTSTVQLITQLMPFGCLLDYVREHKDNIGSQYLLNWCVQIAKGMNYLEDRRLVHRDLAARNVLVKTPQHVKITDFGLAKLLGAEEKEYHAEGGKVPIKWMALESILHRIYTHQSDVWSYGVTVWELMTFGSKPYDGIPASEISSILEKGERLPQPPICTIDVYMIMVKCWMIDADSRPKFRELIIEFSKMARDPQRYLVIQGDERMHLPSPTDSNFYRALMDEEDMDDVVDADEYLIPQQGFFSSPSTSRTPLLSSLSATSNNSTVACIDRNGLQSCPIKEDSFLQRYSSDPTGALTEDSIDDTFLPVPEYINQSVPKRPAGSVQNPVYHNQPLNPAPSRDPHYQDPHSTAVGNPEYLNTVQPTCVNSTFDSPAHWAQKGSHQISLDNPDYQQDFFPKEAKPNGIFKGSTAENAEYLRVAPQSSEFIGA
Description: as §1, §2, §3, §4, §5, §6, §7, §8, §9, §10

[3] = target: DNA-PK (Homo sapiens, UniProt P78527); test: Z'-LYTE / Adapta biochemical kinase assay, DNA-PK; conditions: concentration of 100 nM/liter; read-out: Percent Inhibition of target enzymes, DNA-PK
Description: as §1, §2, §3, §4, §5, §6, §7, §8, §9, §10

Sequence of PI3Kα (P42336 whole entry): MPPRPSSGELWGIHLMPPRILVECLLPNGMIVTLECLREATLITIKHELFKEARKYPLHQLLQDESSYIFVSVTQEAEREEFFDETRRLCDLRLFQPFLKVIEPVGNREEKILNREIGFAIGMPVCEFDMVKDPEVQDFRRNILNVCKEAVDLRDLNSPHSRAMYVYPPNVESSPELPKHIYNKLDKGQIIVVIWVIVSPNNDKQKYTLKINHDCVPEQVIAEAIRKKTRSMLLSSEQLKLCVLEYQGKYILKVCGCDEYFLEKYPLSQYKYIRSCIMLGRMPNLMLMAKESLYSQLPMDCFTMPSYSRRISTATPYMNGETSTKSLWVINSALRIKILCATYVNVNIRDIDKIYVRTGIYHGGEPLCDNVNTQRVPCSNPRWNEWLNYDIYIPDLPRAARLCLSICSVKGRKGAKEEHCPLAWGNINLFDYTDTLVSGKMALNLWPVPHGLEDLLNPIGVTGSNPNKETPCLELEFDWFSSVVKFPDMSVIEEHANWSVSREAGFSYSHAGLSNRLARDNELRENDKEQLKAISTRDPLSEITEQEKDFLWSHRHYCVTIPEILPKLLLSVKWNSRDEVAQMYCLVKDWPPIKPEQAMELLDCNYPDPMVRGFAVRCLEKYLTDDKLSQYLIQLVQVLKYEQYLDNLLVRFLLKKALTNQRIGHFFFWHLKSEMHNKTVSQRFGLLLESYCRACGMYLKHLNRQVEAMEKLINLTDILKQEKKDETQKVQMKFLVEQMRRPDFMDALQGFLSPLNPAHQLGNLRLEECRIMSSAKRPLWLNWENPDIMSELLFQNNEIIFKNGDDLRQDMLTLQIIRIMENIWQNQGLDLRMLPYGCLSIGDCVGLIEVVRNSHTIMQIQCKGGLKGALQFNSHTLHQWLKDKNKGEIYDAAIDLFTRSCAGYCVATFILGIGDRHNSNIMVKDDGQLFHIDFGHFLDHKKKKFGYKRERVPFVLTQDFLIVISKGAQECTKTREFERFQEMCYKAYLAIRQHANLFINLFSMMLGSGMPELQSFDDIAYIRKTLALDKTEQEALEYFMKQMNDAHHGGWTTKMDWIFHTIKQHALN
Sequence of PI3Kα (P27986 whole entry partner): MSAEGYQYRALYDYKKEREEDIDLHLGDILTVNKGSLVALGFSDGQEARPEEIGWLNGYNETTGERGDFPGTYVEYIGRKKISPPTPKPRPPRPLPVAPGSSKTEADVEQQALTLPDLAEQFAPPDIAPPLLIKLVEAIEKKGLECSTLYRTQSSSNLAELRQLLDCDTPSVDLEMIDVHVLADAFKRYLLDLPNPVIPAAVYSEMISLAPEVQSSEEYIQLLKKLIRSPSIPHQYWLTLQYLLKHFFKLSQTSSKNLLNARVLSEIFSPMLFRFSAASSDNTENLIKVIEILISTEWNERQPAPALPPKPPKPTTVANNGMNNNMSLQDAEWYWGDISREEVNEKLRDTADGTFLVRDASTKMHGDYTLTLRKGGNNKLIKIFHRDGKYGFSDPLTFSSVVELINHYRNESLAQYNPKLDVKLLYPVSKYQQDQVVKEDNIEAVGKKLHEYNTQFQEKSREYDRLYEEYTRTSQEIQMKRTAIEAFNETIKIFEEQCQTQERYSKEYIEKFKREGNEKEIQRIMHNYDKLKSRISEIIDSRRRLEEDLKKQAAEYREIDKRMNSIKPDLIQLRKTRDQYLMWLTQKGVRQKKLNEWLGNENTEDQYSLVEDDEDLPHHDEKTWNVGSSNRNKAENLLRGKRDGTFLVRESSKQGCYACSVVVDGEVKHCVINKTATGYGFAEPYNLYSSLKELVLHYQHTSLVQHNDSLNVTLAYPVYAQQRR

Structure (SMILES) | inhibition at 0.1 µM [1] | inhibition at 0.1 µM [2] | inhibition at 0.1 µM [3]
Cc1ncc(-c2ccc3ncnc(Nc4cccc(Cl)c4F)c3c2)cc1NS(C)(=O)=O [Compound 1, N-[5-[4-(3-chloro-2-fluoro-anilino)quinazolin-6-yl]-2-methyl-3-pyridyl] methanesulfonamide] | 80 to 90% | > 90% | > 90%
COc1ncc(-c2ccc3ncnc(Nc4cccc(Cl)c4F)c3c2)cc1NS(C)(=O)=O [Compound 2, N-[5-[4-(3-chloro-2-fluoro-anilino)quinazolin-6-yl]-2-methoxy-3-pyridyl] methanesulfonamide] | > 90% | > 90% | 80 to 90%
CS(=O)(=O)Nc1cncc(-c2ccc3ncnc(Nc4cccc(Cl)c4F)c3c2)c1 [Compound 3, N-[5-[4-(3-chloro-2-fluoro-anilino)quinazolin-6-yl]-3-pyridyl] methanesulfonamide] | 10 to 80% | > 90% | 80 to 90%
